Data on four compounds can be found in publication PMC3266433 (Antiviral Research, 2011).

Structures can show the parent of a compound that is named as a salt. Where two headings read alike, the source gives them in different places.

Series [1] deals with T1, DEN2V NS2B-NS3pro (Dengue virus type 2, UniProt P29990). The series can be described thus: Steady-state kinetics of DEN2V NS2B-NS3pro inhibition. The format is biochemical, dengue 2 virus. The following applies: BOC-GRR-AMC 0 to 1.2 mM.
Series [2] addresses WNV NS2B-NS3pro (West Nile virus, UniProt Q9Q6P4). Put plainly: Steady-state kinetics of WNV NS2B-NS3pro inhibition. The format is biochemical.
In series [3] the target is T2, bovine pancreatic trypsin (Bos taurus, UniProt P00760).
T2 sequence (P00760 24-246): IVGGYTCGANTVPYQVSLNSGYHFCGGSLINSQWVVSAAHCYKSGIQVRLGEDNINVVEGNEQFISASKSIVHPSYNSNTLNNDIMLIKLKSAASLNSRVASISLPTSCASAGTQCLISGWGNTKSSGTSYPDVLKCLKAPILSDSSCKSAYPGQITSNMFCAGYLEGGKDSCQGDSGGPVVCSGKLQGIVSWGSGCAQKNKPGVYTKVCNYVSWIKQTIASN
The series can be described thus: Single-point trypsin inhibition assay to validate selectivity. In kind it is biochemical. To be noted: 100 μM compound; BOC-GRR-AMC 30 μM.

Series [4] deals with T1, DEN2V NS2B-NS3pro. Put plainly: Single-point DEN2V NS2B-NS3pro inhibition assay to validate hits. In kind it is biochemical, dengue 2 virus. The following applies: single-point validation assay.
Series [5] deals with cells. To be noted: ref Yip et al., 2006; cited from earlier work.
Setting [6] is: read-out: Ki1, DEN2V NS2B-NS3pro.
The mark [7] stands for this setting: read-out: Ki2, DEN2V NS2B-NS3pro.

WNV NS2B-NS3pro, sequence (Q9Q6P4 1428-1467): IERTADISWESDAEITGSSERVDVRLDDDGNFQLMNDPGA
WNV NS2B-NS3pro, sequence (Q9Q6P4 1506-1683): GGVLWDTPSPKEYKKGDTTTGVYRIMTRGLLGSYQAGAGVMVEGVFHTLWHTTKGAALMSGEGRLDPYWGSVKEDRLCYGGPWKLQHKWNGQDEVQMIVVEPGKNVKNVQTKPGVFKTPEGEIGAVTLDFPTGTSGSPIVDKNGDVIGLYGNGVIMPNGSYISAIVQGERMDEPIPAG
T1 sequence (P29990 1398-1437): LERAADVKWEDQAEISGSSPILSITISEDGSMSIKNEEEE
T1 sequence (P29990 1476-1653): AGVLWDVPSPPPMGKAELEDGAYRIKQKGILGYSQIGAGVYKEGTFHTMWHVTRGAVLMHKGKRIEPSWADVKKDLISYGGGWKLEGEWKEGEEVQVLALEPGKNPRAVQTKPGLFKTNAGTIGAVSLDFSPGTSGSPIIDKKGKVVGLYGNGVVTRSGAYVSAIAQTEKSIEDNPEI

Consider `CC[C@H](C)[C@H]1O[C@]2(CC[C@@H]1C)C[C@@H]1C[C@@H](C/C=C(\C)[C@@H](O[C@H]3C[C@H](OC)[C@@H](O[C@H]4C[C@H](OC)[C@@H](O)[C@H](C)O4)[C@H](C)O3)[C@@H](C)/C=C/C=C3\CO[C@@H]4[C@H](O)C(C)=C[C@@H](C(=O)O1)[C@]34O)O2` [MS21, Ivermectin], for which the Mechanism entry in series [1] (DEN2V NS2B-NS3pro) and in series [2] (WNV NS2B-NS3pro) was “mixed” each time. For the same compound, the Ki in series [1] (setting [6]) was determined as 79 ± 21 µM; in series [1] (setting [7]) it was 35 ± 4 µM; in series [2] (read-out: Ki1, WNV NS2B-NS3pro) it was 55 ± 18 µM; in series [2] (read-out: Ki2, WNV NS2B-NS3pro) it was 16 ± 4 µM. The trypsin inhibition entry in series [3] is listed as “did not inhibit trypsin”. Also, the “DEN2V protease inhibition (in words)” value in series [4] is reported as “inhibited DEN2V protease”.

Consider `Cc1cc(C(C)(C)CC(C)(C)C)ccc1OCCOCC[N+](C)(C)Cc1ccccc1.[Cl-]` [MS22, Methylbenzethonium chloride], for which the Mechanism entry in series [1] (DEN2V NS2B-NS3pro) and in series [2] (WNV NS2B-NS3pro) was “mixed” in each case. Further, the Ki was 322 ± 81 µM in series [1] (setting [6]); 160 ± 39 µM in series [1] (setting [7]); 141 ± 20 µM in series [2] (read-out: Ki1, WNV NS2B-NS3pro); 307 ± 80 µM in series [2] (read-out: Ki2, WNV NS2B-NS3pro). The trypsin inhibition result in series [3] was “did not inhibit trypsin”. In series [4], the “DEN2V protease inhibition (in words)” value is “inhibited DEN2V protease”.

For `CO[C@H]1C[C@H](O[C@@H]2/C(C)=C/C[C@@H]3C[C@@H](C[C@]4(CC[C@H](C)[C@@H](C5CCCCC5)O4)O3)OC(=O)[C@@H]3C=C(C)/C(=N/O)[C@H]4OC/C(=C\C=C\[C@@H]2C)[C@]43O)O[C@@H](C)[C@@H]1O` [MS24, Selamectin], the Mechanism entry in series [1] (DEN2V NS2B-NS3pro) and in series [2] (WNV NS2B-NS3pro) was “mixed” in each case. Moreover, the Ki in series [1] (Ki2, DEN2V NS2B-NS3pro) amounted to 45 ± 8 µM; in series [2] (Ki1, WNV NS2B-NS3pro), 15 ± 9 µM; in series [2] (Ki2, WNV NS2B-NS3pro), 28 ± 6 µM. The trypsin inhibition entry in series [3] was “did not inhibit trypsin”. In addition, the “DEN2V protease inhibition (in words)” value in series [4] was “inhibited DEN2V protease”.

Consider `CCCCC(CC)CNC(=N)NC(=N)NCCCCCCNC(=N)NC(=N)NCC(CC)CCCC` (stereo not shown) [MS28, Alexidine hydrochloride], for which the Mechanism result is “mixed inhibition mechanism” in series [1] (DEN2V NS2B-NS3pro) and “mixed” in series [2] (WNV NS2B-NS3pro). Moreover, the Ki in series [1] (Ki2, DEN2V NS2B-NS3pro) was 84 ± 16 µM; in series [2] (Ki1, WNV NS2B-NS3pro) it was 12 ± 1.2 µM; in series [2] (Ki2, WNV NS2B-NS3pro), 28 ± 5 µM. In addition, the trypsin inhibition result in series [3] is “did not inhibit trypsin”. Also, the “DEN2V protease inhibition (in words)” value in series [4] is “inhibited DEN2V protease”. Further, the “CC50 (cell viability reduced by 50%)” value in series [5] is “low micromolar”.
